Molecular target: T1, Cytochrome P450 26A1 (Homo sapiens, UniProt O43174)
T1 sequence (O43174 whole entry): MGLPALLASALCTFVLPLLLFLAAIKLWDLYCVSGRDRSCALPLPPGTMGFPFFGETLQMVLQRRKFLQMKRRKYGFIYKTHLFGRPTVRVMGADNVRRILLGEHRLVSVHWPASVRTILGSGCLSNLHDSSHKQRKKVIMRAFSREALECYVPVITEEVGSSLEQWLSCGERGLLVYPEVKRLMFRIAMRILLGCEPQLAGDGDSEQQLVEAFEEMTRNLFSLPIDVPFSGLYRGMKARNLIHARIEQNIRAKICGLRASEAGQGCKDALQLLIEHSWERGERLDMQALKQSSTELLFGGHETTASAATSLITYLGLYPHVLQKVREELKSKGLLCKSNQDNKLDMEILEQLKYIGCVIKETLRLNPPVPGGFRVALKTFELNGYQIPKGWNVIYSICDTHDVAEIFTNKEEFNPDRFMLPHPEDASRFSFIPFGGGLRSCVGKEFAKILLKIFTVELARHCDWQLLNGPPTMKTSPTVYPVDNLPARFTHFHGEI
Assay: Cell Assay

IC50 | SMILES
12 µM | Oc1ccc(C(c2ccc(Nc3nc4ccccc4o3)cc2)n2ccnc2)cc1 (centres undefined) [Oxazolamine derivative, 5f]
50 µM | O=C(O)c1ccc(C(c2ccc(Nc3nc4ccccc4o3)cc2)n2ccnc2)cc1 (centres undefined) [Oxazolamine derivative, 5d]
20 µM | COC(=O)c1ccc(C(c2ccc(Nc3nc4ccccc4o3)cc2)n2ccnc2)cc1 (centres undefined) [Oxazolamine derivative, 5c]
35 µM | Fc1ccc(C(c2ccc(Nc3nc4ccccc4o3)cc2)n2ccnc2)cc1 (centres undefined) [Oxazolamine derivative, 5a]
18 µM | c1ccc(C(c2ccc(Nc3nc4ccccc4o3)cc2)n2cncn2)cc1 (centres undefined) [1H-1,2,4-triazole, 11]
> 20 µM | c1ccc(C(c2ccc(Nc3nc4ccccc4o3)cc2)n2cnnc2)cc1 (centres undefined) [1H-1,2,4-triazole, 12]
> 20 µM | COc1ccc(C(c2ccc(Nc3nc4ccccc4o3)cc2)n2ccnc2)cc1 (centres undefined) [Oxazolamine derivative, 5e]
0.005 µM | CCC(CC)C(c1ccc(Nc2nc3ccccc3s2)cc1)n1cncn1 (centres undefined) [R115866]
> 20 µM | c1ccc(C(c2ccc(Nc3nc4ccccc4o3)cc2)n2cnnn2)cc1 (centres undefined) [1H-tetrazole, 13]
